Measurements reported in patent US7579432B2, “Cyclic peptides as G-protein-coupled receptor antagonists” (Promics Pty Limited, priority 2001, dated 2009).
Bridge positions count the residues as written; N and C are the ends. Square brackets hold non-standard residues; d marks the D form. Peptide text beside a SMILES is read from it. * marks the point of attachment. Hydrocinnamoyl = O=C(CCc1ccccc1)*; dCha = N[C@H](CC1CCCCC1)C(=O)O; Orn = NCCC[C@H](N)C(=O)O

Tested on: neutropenia caused by i.v. LPS
Assay: LPS-induced neutropenia (endotoxaemia model)
Type: in vivo, rat
Settings: topical in 50% DMSO/50% H2O, 60 min before LPS 1 mg/kg i.v.
Procedure: The in vivo pharmacological properties of cyclic antagonists were examined following topical dermal administration. A model of endotoxaemia was used, in which 1 mg/kg Escherichia coli […] (LPS; serotype 55:B5, Sigma, USA, stored at 100 mg ml^−1 in dH2O, 4° C.), was injected i.v into a rat, resulting in acute changes in circulating PMN levels and blood pressure. These parameters were measured in the presence and absence of C5aR antagonists (1 mg/kg i.v or 50 mg/kg/rat topically). […] Female Wistar rats weighing between 200-250 g were used for in vivo testing of all C5a receptor antagonists. Rats were anaesthetized using the procedure described above, and transferred on to a heating pad to ensure that body temperature was maintained throughout the experiment. A catheter was inserted in the femoral vein, secured with a suture and flushed with 100 μL of heparinised saline. […] All agents infused i.v were injected over a 2 min period, and were followed with a subsequent injection of 100 μL of saline to ensure complete delivery of the drug. Whole blood samples (0.1 mL) were collected from the tail vein at the time of drug and LPS or C5a administration. Samples were collected at −15, 0, 5, 10, 15, 30, 60, 90, 120 and 150 min relative to the injection of LPS (zero time), and placed in tubes containing heparin (500 Units/mL). To isolate PMNs, 100 μL of blood was layered on to 200 μL of Histopaque 1077 (Sigma U.S.A.) solution and centrifuged at 400×g for 30 min min at room temperature (25° C.). The supernatant layer of platelet-rich plasma, the monocyte and lymphocyte interface and the separation layer of Histopaque were removed and discarded, leaving the PMN and red blood-cell rich layer. […] The number of PMNs was counted on a haemocytometer. The number of cells at each time point was calculated as a percentage of the total number of cells at time zero, prior to complement challenge or LPS. […] Circulating PMN levels were monitored for 150 min following LPS injection, and the percentage change in PMN levels from zero time, when LPS was injected, was calculated.

Row | SMILES | neutropenia response to i.v. LPS
1 | N=C(N)NCCC[C@@H]1NC(=O)[C@H](Cc2c[nH]c3ccccc23)NC(=O)[C@@H](CC2CCCCC2)NC(=O)[C@@H]2CCCN2C(=O)[C@@H](NC(=O)CCc2ccccc2)CCCNC1=O [Compound 17, HC[OP-dCha-WR]] (Hydrocinnamoyl-[Orn]P[dCha]WR; lactam 1-C) | inhibited the neutropenia response
2 | CC(=O)N[C@@H](Cc1ccccc1)C(=O)N[C@H]1CCCNC(=O)[C@H](CCCNC(N)=O)NC(=O)[C@H](Cc2c[nH]c3ccccc23)NC(=O)[C@@H](CC2CCCCC2)NC(=O)[C@@H]2CCCN2C1=O [Compound 45, AcF[OPdChaW-Cit]] | inhibited the neutropenia response
